Measurements reported in US20110217258A1, “Combined Use of Bendamustine, Doxorubicin and Bortezomib for the Treatment of Multiple Myeloma” (Indiana University Research and Technology Corporation, priority 2008, published 2011).

Test system: H929 and MM1R myeloma cell lines
Test: MTS cellular cytotoxicity assay, single agent
Assay type: cell-based
Description: H929 and MM1R myeloma cell lines were cultured in vitro and cellular cytotoxicity was measured by MTS ([3-(4,5-dimethylthiazol-2-yl)-5-(3-carboxymethoxyphenyl)-2-(4-sulfophenyl)-2H-tetrazolium, inner salt) assay. The effect of the combination in terms of additive, antagonistic, or synergistic activity was assessed by Valeriote and Lin's method (Valeriote and Lin, Cancer Chemother Rep 1975; 59:895-900). […] To test the effect of the combination of all three drugs, cells were cultured with bendamustine (15 μg/ml) and doxorubicin (0.03 μg/ml) for 48 hours, and bortezomib (2.5 nmol/L) was added in the last 24 hours, and cytotoxicity was assayed.

Question: Which results are given for `Cl.Cn1c(CCCC(=O)O)nc2cc(N(CCCl)CCCl)ccc21` [bendamustine, 1H-benzimidazole-2-butanoic acid, 5-[bis(2-chloroethyl)amino]-1-methyl-, monohydrochloride]?
Answer: CC50 (48 h, read-out: concentration lethal to 50% of cells (LC50)): 34.9 ± 3.4 µg/mL; MM cell death induced by drug alone (bendamustine alone, repeated experiments): time and dose-dependent
